Laboratory results as given in patent US20260262643A1, “HERBICIDAL BENZOXAZINES” (FMC CORPORATION, priority 2022, published 2026).

Tests used:
[1] = test system: ducksalad; assay: Test D flooded paddy test; assay type: in vivo, Heteranthera limosa; conditions: 250 g ai/ha, applied to paddy water, visual rating after 13 to 14 days, scale 0 to 100 (0 no effect, 100 complete control)
Procedure, shortened: (§1)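 Rating scale 0–100 (0 no effect, 100 complete control), visual, versus controls. Readout at 13–14 days after in-water application to 2-leaf plants in pots flooded 3 cm deep.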

[2] = test system: barnyardgrass; assay: Test D flooded paddy test; assay type: in vivo, Echinochloa crus-galli; conditions: 250 g ai/ha, applied to paddy water, visual rating after 13 to 14 days, scale 0 to 100 (0 no effect, 100 complete control)
Procedure, shortened: as §1

[3] = test system: rice; assay: Test D flooded paddy test; assay type: in vivo, Oryza sativa; conditions: 250 g ai/ha, applied to paddy water, visual rating after 13 to 14 days, scale 0 to 100 (0 no effect, 100 complete control)
Procedure, shortened: as §1

[4] = test system: corn; assay: Test C preemergence; assay type: in vivo, Zea mays; conditions: for Corn plant response rating: preemergence; for Plant response rating, Corn: Preemergence
Procedure, shortened: (§2)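 Pre: seeds in loam/sand, directed soil spray. Post: 1–2 leaf plants, 2–10 cm. Cmpd in non-phytotoxic solvent + surfactant. Greenhouse 10 d; visual rating vs untreated, 0 = none, 100 = complete control.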

[5] = test system: barnyardgrass; assay: Test C preemergence; assay type: in vivo, Echinochloa crusgalli; conditions: for Barnyardgrass plant response rating: preemergence; for Plant response rating, Barnyardgrass: Preemergence
Procedure, shortened: as §2

[6] = test system: oat, wild; assay: Test C preemergence; assay type: in vivo, Avena fatua; conditions: for Oat, Wild plant response rating: preemergence; for Plant response rating, Oat, Wild: Preemergence
Procedure, shortened: as §2

[7] = test system: ragweed; assay: Test C preemergence; assay type: in vivo, Ambrosia artemisiifolia; conditions: for Ragweed plant response rating: preemergence; for Plant response rating, Ragweed: Preemergence
Procedure, shortened: as §2

[8] = test system: pigweed, palmer; assay: Test C postemergence; assay type: in vivo, Amaranthus palmeri; conditions: 10 days
Procedure, shortened: as §2

[9] = test system: barnyardgrass; assay: Test C postemergence; assay type: in vivo, Echinochloa crusgalli; conditions: 10 days
Procedure, shortened: as §2

[10] = test system: green foxtail; assay: Test C postemergence; assay type: in vivo, Setaria viridis; conditions: 10 days
Procedure, shortened: as §2

[11] = test system: kochia; assay: Test C postemergence; assay type: in vivo, Bassia scoparia; conditions: 10 days
Procedure, shortened: as §2

[12] = test system: sedge, umbrella; assay: Test D flooded paddy test; assay type: in vivo, Cyperus difformis; conditions: 250 g ai/ha, applied to paddy water, visual rating after 13 to 14 days, scale 0 to 100 (0 no effect, 100 complete control)
Procedure, shortened: as §1

[13] = test system: blackgrass; assay: Test C preemergence; assay type: in vivo, Alopecurus myosuroides; conditions: for Blackgrass plant response rating: preemergence; for Plant response rating, Blackgrass: Preemergence
Procedure, shortened: as §2

[14] = test system: pigweed, palmer; assay: Test C preemergence; assay type: in vivo, Amaranthus palmeri; conditions: for Pigweed, Palmer plant response rating: preemergence; for Plant response rating, Pigweed, Palmer: Preemergence
Procedure, shortened: as §2

[15] = test system: horseweed; assay: Test C postemergence; assay type: in vivo, Erigeron canadensis; conditions: 10 days
Procedure, shortened: as §2

[16] = test system: corn; assay: Test C postemergence; assay type: in vivo, Zea mays; conditions: 10 days
Procedure, shortened: as §2

[17] = test system: ragweed; assay: Test C postemergence; assay type: in vivo, Ambrosia artemisiifolia; conditions: 10 days
Procedure, shortened: as §2

[18] = test system: soybean; assay: Test C preemergence; assay type: in vivo, Glycine max; conditions: for Soybean plant response rating: preemergence; for Plant response rating, Soybean: Preemergence
Procedure, shortened: as §2

[19] = test system: ryegrass, Italian; assay: Test C preemergence; assay type: in vivo, Lolium multiflorum; conditions: for Ryegrass, Italian plant response rating: preemergence; for Plant response rating, Ryegrass, Italian: Preemergence
Procedure, shortened: as §2

[20] = test system: soybean; assay: Test C postemergence; assay type: in vivo, Glycine max; conditions: 10 days
Procedure, shortened: as §2

[21] = test system: wheat; assay: Test C postemergence; assay type: in vivo, Triticum aestivum; conditions: 10 days
Procedure, shortened: as §2

[22] = test system: blackgrass; assay: Test C postemergence; assay type: in vivo, Alopecurus myosuroides; conditions: 10 days
Procedure, shortened: as §2

[23] = test system: green foxtail; assay: Test C preemergence; assay type: in vivo, Setaria viridis; conditions: for Foxtail, Green plant response rating: preemergence; for Plant response rating, Foxtail, Green: Preemergence
Procedure, shortened: as §2

[24] = test system: wheat; assay: Test C preemergence; assay type: in vivo, Triticum aestivum; conditions: for Wheat plant response rating: preemergence; for Plant response rating, Wheat: Preemergence
Procedure, shortened: as §2

[25] = test system: kochia; assay: Test C preemergence; assay type: in vivo, Bassia scoparia; conditions: for Kochia plant response rating: preemergence; for Plant response rating, Kochia: Preemergence
Procedure, shortened: as §2

[26] = test system: ryegrass, Italian; assay: Test C postemergence; assay type: in vivo, Lolium multiflorum; conditions: 10 days
Procedure, shortened: as §2

[27] = test system: galium; assay: Test C postemergence; assay type: in vivo, Galium aparine; conditions: 10 days
Procedure, shortened: as §2

[28] = test system: oat, wild; assay: Test C postemergence; assay type: in vivo, Avena fatua; conditions: 10 days
Procedure, shortened: as §2

[29] = 500 g ai/ha, 0 to 100 scale (0 no effect, 100 complete control)
[30] = Test C, 125 g ai/ha, 0 to 100 scale (0 no effect, 100 complete control)
[31] = 125 g ai/ha, postemergence, 0 to 100 scale, 0 no effect, 100 complete control
[32] = 500 g ai/ha, postemergence, 0 to 100 scale (0 no effect, 100 complete control)
[33] = 125 g ai/ha, 0 to 100 scale, 0 no effect, 100 complete control
[34] = Postemergence, 125 g ai/ha, 0 to 100 scale (0 no effect, 100 complete control)
[35] = 500 g ai/ha, visual rating after 10 days, 0 to 100 scale (0 no effect, 100 complete control)
[36] = Postemergence, 500 g ai/ha, visual 0 to 100 scale (0 no effect, 100 complete control)

CC(C)c1ncn(-c2cccc(C(=O)N3CC(C(F)(F)F)Oc4c(Cl)cccc43)c2)n1 (single isomer, unassigned) [Compound 288]
Plant response rating, Ducksalad (Flood) [1]: 0
Plant response rating, Barnyardgrass (Flood) [2]: 0
Plant response rating, Rice (Flood) [3]: 0
Corn plant response rating [4, 29]: 10
Corn plant response rating [4, 30]: 0
Barnyardgrass plant response rating [5, 29]: 30
Barnyardgrass plant response rating [5, 30]: 0
Oat, Wild plant response rating [6, 29]: 20
Oat, Wild plant response rating [6, 30]: 20
Ragweed plant response rating [7, 29]: 0
Ragweed plant response rating [7, 30]: 0
Plant response rating, Pigweed, Palmer [8, 31]: 10
Plant response rating, Pigweed, Palmer [8, 32]: 50
Plant response rating, Barnyardgrass [9, 31]: 10
Plant response rating, Barnyardgrass [9, 32]: 10
Plant response rating, Foxtail, Green [10, 31]: 10
Plant response rating, Foxtail, Green [10, 32]: 20
Plant response rating, Kochia [11, 31]: 40
Plant response rating, Kochia [11, 32]: 80
Plant response rating, Sedge, Umbrella (Flood) [12]: 0
Blackgrass plant response rating [13, 29]: 60
Blackgrass plant response rating [13, 30]: 10
Pigweed, Palmer plant response rating [14, 29]: 80
Pigweed, Palmer plant response rating [14, 30]: 50
Plant response rating, Horseweed [15, 31]: 0
Plant response rating, Horseweed [15, 32]: 0
Plant response rating, Corn [16, 31]: 0
Plant response rating, Corn [16, 32]: 10
Plant response rating, Ragweed [17, 31]: 30
Plant response rating, Ragweed [17, 32]: 30
Soybean plant response rating [18, 29]: 40
Soybean plant response rating [18, 30]: 40
Ryegrass, Italian plant response rating [19, 29]: 80
Ryegrass, Italian plant response rating [19, 30]: 80
Plant response rating, Soybean [20, 31]: 60
Plant response rating, Soybean [20, 32]: 80
Plant response rating, Wheat [21, 31]: 10
Plant response rating, Wheat [21, 32]: 20
Plant response rating, Blackgrass [22, 31]: 0
Plant response rating, Blackgrass [22, 32]: 10
Foxtail, Green plant response rating [23, 29]: 70
Foxtail, Green plant response rating [23, 30]: 0
Wheat plant response rating [24, 29]: 20
Wheat plant response rating [24, 30]: 0
Kochia plant response rating [25, 29]: 50
Kochia plant response rating [25, 30]: 10
Plant response rating, Ryegrass, Italian [26, 31]: 0
Plant response rating, Ryegrass, Italian [26, 32]: 20
Plant response rating, Galium [27, 31]: 60
Plant response rating, Galium [27, 32]: 50
Plant response rating, Oat, Wild [28, 31]: 0
Plant response rating, Oat, Wild [28, 32]: 0

CNc1ncn(-c2cccc(C(=O)N3C[C@H](C)Oc4c(C)cccc43)c2)n1 [Compound 337]
Plant response rating, Ducksalad (Flood) [1]: 0
Plant response rating, Barnyardgrass (Flood) [2]: 0
Plant response rating, Rice (Flood) [3]: 0
Corn plant response rating [4, 29]: 40
Plant response rating, Corn [4, 33]: 0
Barnyardgrass plant response rating [5, 29]: 90
Plant response rating, Barnyardgrass [5, 33]: 30
Oat, Wild plant response rating [6, 29]: 20
Plant response rating, Oat, Wild [6, 33]: 0
Ragweed plant response rating [7, 29]: 50
Plant response rating, Ragweed [7, 33]: 30
Plant response rating, Pigweed, Palmer [8, 32]: 70
Plant response rating, Pigweed, Palmer [8, 34]: 20
Plant response rating, Barnyardgrass [9, 32]: 60
Plant response rating, Barnyardgrass [9, 34]: 10
Plant response rating, Foxtail, Green [10, 32]: 40
Plant response rating, Foxtail, Green [10, 34]: 30
Plant response rating, Kochia [11, 32]: 70
Plant response rating, Kochia [11, 34]: 50
Plant response rating, Sedge, Umbrella (Flood) [12]: 0
Blackgrass plant response rating [13, 29]: 50
Plant response rating, Blackgrass [13, 33]: 20
Pigweed, Palmer plant response rating [14, 29]: 100
Plant response rating, Pigweed, Palmer [14, 33]: 0
Plant response rating, Horseweed [15, 32]: 20
Plant response rating, Horseweed [15, 34]: 0
Plant response rating, Corn [16, 32]: 60
Plant response rating, Corn [16, 34]: 10
Plant response rating, Ragweed [17, 32]: 60
Plant response rating, Ragweed [17, 34]: 20
Soybean plant response rating [18, 29]: 40
Plant response rating, Soybean [18, 33]: 0
Ryegrass, Italian plant response rating [19, 29]: 90
Plant response rating, Ryegrass, Italian [19, 33]: 50
Plant response rating, Soybean [20, 32]: 100
Plant response rating, Soybean [20, 34]: 90
Plant response rating, Wheat [21, 32]: 20
Plant response rating, Wheat [21, 34]: 10
Plant response rating, Blackgrass [22, 32]: 90
Plant response rating, Blackgrass [22, 34]: 40
Foxtail, Green plant response rating [23, 29]: 100
Plant response rating, Foxtail, Green [23, 33]: 90
Wheat plant response rating [24, 29]: 10
Plant response rating, Wheat [24, 33]: 0
Kochia plant response rating [25, 29]: 80
Plant response rating, Kochia [25, 33]: 0
Plant response rating, Ryegrass, Italian [26, 32]: 70
Plant response rating, Ryegrass, Italian [26, 34]: 20
Plant response rating, Galium [27, 32]: 90
Plant response rating, Galium [27, 34]: 40
Plant response rating, Oat, Wild [28, 32]: 30
Plant response rating, Oat, Wild [28, 34]: 10

Cc1c(F)cc(-n2cnc(C(C)C)n2)cc1C(=O)N1C[C@H](C)Oc2c(Cl)cccc21 [Compound 151]
Plant response rating, Ducksalad (Flood) [1]: 50
Plant response rating, Barnyardgrass (Flood) [2]: 40
Plant response rating, Rice (Flood) [3]: 45
Plant response rating, Corn [4, 35]: 50
Corn plant response rating [4, 30]: 20
Barnyardgrass plant response rating ([5]; 125 g ai/ha, 0 to 100 scale (0 no effect, 100 complete control)): 90
Plant response rating, Barnyardgrass [5, 35]: 100
Plant response rating, Oat, Wild [6, 35]: 90
Oat, Wild plant response rating [6, 30]: 30
Plant response rating, Ragweed [7, 35]: 80
Ragweed plant response rating [7, 30]: 30
Plant response rating, Pigweed, Palmer [8, 31]: 90
Plant response rating, Pigweed, Palmer [8, 36]: 100
Plant response rating, Barnyardgrass [9, 31]: 70
Plant response rating, Barnyardgrass [9, 36]: 100
Plant response rating, Foxtail, Green [10, 31]: 80
Plant response rating, Foxtail, Green [10, 36]: 90
Plant response rating, Kochia [11, 31]: 90
Plant response rating, Kochia [11, 36]: 100
Plant response rating, Sedge, Umbrella (Flood) [12]: 75
Plant response rating, Blackgrass [13, 35]: 90
Blackgrass plant response rating [13, 30]: 50
Plant response rating, Pigweed, Palmer [14, 35]: 100
Pigweed, Palmer plant response rating [14, 30]: 100
Plant response rating, Horseweed [15, 31]: 40
Plant response rating, Horseweed [15, 36]: 80
Plant response rating, Corn [16, 31]: 60
Plant response rating, Corn [16, 36]: 90
Plant response rating, Ragweed [17, 31]: 70
Plant response rating, Ragweed [17, 36]: 90
Plant response rating, Soybean [18, 35]: 90
Soybean plant response rating [18, 30]: 50
Plant response rating, Ryegrass, Italian [19, 35]: 90
Ryegrass, Italian plant response rating [19, 30]: 80
Plant response rating, Soybean [20, 31]: 100
Plant response rating, Soybean [20, 36]: 100
Plant response rating, Wheat [21, 31]: 20
Plant response rating, Wheat [21, 36]: 30
Plant response rating, Blackgrass [22, 31]: 80
Plant response rating, Blackgrass [22, 36]: 80
Plant response rating, Foxtail, Green [23, 35]: 100
Foxtail, Green plant response rating [23, 30]: 100
Plant response rating, Wheat [24, 35]: 80
Wheat plant response rating [24, 30]: 80
Plant response rating, Kochia [25, 35]: 100
Kochia plant response rating [25, 30]: 100
Plant response rating, Ryegrass, Italian [26, 31]: 60
Plant response rating, Ryegrass, Italian [26, 36]: 80
Plant response rating, Galium [27, 31]: 100
Plant response rating, Galium [27, 36]: 100
Plant response rating, Oat, Wild [28, 31]: 20
Plant response rating, Oat, Wild [28, 36]: 50
